Measurements: paper PMC4995014, “Identification of ABC Transporter Interaction of a Novel Cyanoquinoline Radiotracer and Implications for Tumour Imaging by Positron Emission Tomography” (PLoS ONE, 2016)

Columns and labels:
EGFR L858R (H3255 cells) = target: T1, EGFR L858R (H3255 cells) (Homo sapiens, UniProt P00533, L858R); experiment: Inhibition of EGFR autophosphorylation (p-EGFR Y1068, western blot) in H3255 cells; type: cell-based; conditions: 3 h incubation, EGF stimulated
T1 construct: host or cells: H3255
T1 sequence (P00533 25-1210 L858R): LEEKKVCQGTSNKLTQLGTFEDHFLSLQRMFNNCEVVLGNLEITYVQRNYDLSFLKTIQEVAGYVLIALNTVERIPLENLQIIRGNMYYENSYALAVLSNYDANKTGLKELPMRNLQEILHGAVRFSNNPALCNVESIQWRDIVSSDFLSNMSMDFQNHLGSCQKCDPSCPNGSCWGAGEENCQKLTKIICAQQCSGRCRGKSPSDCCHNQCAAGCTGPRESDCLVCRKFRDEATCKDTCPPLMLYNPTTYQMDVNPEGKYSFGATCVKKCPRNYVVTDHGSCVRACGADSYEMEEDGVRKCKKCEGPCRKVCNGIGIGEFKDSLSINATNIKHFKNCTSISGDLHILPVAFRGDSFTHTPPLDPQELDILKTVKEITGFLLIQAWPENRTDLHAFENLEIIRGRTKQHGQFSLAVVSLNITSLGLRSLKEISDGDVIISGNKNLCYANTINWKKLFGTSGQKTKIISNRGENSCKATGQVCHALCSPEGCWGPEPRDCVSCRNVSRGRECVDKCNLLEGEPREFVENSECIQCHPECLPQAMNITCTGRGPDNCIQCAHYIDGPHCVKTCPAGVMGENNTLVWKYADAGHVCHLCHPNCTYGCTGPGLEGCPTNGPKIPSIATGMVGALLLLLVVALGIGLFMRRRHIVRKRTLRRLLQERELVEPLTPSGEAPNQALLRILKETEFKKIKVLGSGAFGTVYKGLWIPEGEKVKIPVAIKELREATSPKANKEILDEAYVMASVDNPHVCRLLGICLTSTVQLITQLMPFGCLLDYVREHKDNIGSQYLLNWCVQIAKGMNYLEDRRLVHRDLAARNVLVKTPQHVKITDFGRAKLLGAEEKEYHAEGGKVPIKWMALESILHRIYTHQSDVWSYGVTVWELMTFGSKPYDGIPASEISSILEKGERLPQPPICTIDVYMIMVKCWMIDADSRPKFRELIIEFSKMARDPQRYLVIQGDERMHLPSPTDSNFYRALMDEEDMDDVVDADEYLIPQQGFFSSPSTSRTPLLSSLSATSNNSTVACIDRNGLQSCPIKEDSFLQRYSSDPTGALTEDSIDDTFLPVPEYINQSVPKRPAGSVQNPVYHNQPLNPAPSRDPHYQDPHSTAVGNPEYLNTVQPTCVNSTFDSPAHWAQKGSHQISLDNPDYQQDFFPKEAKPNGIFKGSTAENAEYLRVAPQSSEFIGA
Description: (§1) Affinity of the cyanoquinolines for EGFR was established by measuring their inhibition of EGFR autophosphorylation via western blot. Cells were seeded in 6 well plates and following 24 h of growth, were subject to overnight serum starvation. The cells were then treated with increasing concentrations of cyanoquinolines prepared in serum free growth media from a DMSO stock (final DMSO concentration < 1%) for 3 h at 37°C, and stimulated for receptor autophosphorylation by addition of 100 ng/mL of EGF during the last 15 minutes of drug incubation. After 3 h the cells were placed on ice, media removed and then the cells were washed two times with ice cold phosphate buffered saline (PBS). Lysates were analysed by western blot to measure changes to p-EGFR Y1068.
(§2) Cells were collected into a microcentrifuge tube and sonicated for 30 seconds on ice. Cellular protein levels were assessed using a bicinchoninic acid (BCA) protein assay kit according to the manufacturer’s instructions (Thermo scientific). […] Samples were transferred to polyvinylidene difluoride (PVDF) membrane using Trans-Blot Turbo system BIO-RAD (Hercules, California, USA). […] The membranes were then incubated overnight with primary antibody prepared in 1% milk or 1% BSA in TBST. […] Membranes were washed a further three times for 10 minutes with TBST. […]

[1] = target: T2, EGFR Del E746-A750 (PC9 cells) (Homo sapiens, UniProt P00533, DEL746-750); experiment: Inhibition of EGFR autophosphorylation (p-EGFR Y1068, western blot) in PC9 cells; type: cell-based; conditions: 3 h incubation, densitometry of western blots
T2 construct: endogenous in cells; host or cells: PC9 (Dr Olivier Pardo, Imperial College London)
T2 sequence (P00533 with tags, fused parts or gaps DEL746-750): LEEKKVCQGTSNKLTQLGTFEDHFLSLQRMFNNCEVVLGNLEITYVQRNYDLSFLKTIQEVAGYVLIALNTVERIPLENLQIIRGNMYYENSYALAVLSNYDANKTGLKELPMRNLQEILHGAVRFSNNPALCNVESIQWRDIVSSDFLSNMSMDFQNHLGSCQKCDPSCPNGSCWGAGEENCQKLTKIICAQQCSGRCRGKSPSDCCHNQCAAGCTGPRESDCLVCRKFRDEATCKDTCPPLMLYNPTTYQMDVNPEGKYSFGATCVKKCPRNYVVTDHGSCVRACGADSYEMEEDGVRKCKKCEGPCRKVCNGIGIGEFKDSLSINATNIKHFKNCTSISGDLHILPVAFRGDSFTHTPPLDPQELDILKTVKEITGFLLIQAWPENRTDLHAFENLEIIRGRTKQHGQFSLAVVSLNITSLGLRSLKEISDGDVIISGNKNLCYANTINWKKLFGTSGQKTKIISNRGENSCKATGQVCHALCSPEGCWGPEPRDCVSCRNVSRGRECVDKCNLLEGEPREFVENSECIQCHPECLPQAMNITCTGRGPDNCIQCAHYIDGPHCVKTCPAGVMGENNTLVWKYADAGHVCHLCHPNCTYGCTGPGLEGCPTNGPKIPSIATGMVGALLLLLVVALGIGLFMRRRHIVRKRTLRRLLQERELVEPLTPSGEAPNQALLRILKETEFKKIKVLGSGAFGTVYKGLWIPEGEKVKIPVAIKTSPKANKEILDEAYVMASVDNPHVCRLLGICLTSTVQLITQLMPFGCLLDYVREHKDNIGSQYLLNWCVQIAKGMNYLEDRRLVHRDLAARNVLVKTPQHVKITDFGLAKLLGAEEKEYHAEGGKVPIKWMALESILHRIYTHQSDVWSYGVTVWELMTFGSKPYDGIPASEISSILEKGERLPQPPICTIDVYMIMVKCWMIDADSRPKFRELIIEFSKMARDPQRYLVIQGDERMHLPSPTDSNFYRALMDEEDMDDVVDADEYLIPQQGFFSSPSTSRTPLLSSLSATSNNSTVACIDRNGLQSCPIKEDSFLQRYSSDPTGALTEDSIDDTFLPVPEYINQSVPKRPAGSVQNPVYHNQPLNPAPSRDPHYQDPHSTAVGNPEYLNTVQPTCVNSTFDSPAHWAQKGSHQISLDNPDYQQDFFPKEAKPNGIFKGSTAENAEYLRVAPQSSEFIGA
Description: as §1, §2

[2] = target: T3, wildtype EGFR (H358 cells) (Homo sapiens, UniProt P00533); experiment: Inhibition of EGFR autophosphorylation (p-EGFR Y1068, western blot) in H358 cells; type: cell-based; conditions: 3 h incubation, EGF stimulated
T3 construct: host or cells: H358
T3 sequence (P00533 25-1210): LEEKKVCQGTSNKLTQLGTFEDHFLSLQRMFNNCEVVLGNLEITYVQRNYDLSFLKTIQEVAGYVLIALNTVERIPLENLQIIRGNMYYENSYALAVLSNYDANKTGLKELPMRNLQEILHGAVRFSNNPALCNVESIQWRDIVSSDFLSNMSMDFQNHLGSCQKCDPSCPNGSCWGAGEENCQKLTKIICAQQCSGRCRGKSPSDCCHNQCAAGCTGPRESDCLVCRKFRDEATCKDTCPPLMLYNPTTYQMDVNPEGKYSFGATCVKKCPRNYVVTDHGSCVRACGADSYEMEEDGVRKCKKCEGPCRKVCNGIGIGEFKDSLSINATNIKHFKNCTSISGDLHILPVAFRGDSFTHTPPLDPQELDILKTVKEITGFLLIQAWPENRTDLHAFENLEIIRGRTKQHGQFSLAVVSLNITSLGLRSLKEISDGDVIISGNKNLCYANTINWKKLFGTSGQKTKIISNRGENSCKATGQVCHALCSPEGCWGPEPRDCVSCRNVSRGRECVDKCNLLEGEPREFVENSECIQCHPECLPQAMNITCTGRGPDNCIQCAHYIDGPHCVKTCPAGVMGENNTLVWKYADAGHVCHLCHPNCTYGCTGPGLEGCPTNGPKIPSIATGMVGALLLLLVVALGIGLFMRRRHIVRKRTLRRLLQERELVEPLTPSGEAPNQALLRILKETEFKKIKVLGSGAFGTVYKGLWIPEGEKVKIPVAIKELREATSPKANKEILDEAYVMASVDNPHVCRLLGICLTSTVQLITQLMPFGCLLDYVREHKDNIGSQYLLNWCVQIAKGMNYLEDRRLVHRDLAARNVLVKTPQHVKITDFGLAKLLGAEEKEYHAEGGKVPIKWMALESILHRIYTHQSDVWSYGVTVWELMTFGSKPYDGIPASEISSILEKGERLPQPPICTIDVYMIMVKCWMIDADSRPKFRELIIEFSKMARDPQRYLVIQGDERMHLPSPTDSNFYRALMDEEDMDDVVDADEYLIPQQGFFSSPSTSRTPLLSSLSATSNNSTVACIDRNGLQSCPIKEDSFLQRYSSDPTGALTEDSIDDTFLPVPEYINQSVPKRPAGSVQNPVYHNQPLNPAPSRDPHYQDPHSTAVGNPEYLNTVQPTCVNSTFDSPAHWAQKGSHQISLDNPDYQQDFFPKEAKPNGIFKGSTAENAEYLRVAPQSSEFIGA
Description: as §1
(§3) Cell lysates were prepared by addition of radioimmunoprecipitation assay (RIPA) buffer (50mM Tris-HCl pH 7.2, 150mM NaCl, 1% NP40, 1% sodium deoxycholate, 0.1% sodium dodecyl sulfate) supplemented with 1 x protease and phosphatase inhibitor cocktail (1mM 4-(2-Aminoethyl)benzenesulfonylfluoride hydrochloride, 800 nM aprotinin, 50 μM bestatin, 15 μM E-64, 5μM EDTA, 20 μM leupeptin, 10 μM pepstatin A; Thermo scientific, Waltham, Massachusetts, USA). […] Cellular protein levels were assessed using a bicinchoninic acid (BCA) protein assay kit according to the manufacturer’s instructions (Thermo scientific). […]

EGFR = test system: EGFR; design: method as in PMID 20797871, PMID 24307532; conditions: cell-free; read-out: IC50 for inhibition of cell-free EGFR phosphorylation; cited from earlier work
[3] = target: T4, wildtype EGFR (A549 cells) (Homo sapiens, UniProt P00533); experiment: Inhibition of EGFR autophosphorylation (p-EGFR Y1068, western blot) in A549 cells; type: cell-based; conditions: 3 h incubation, EGF stimulated
T4 construct: host or cells: A549
T4 sequence (P00533 25-1210): as above
Description: as §1, §3

[4] = target: T5, EGFR Del E746-A750 (H1650 cells) (Homo sapiens, UniProt P00533, DEL746-750); experiment: Inhibition of EGFR autophosphorylation (p-EGFR Y1068, western blot) in H1650 cells; type: cell-based; conditions: 3 h incubation, EGF stimulated
T5 construct: endogenous in cells; host or cells: H1650 (ATCC)
Description: as §1, §3

active mutant EGFR = experiment: Inhibition of EGFR autophosphorylation in active mutant EGFR expressing cell lines (H1650, PC9, H3255); type: cell-based; conditions: H1650 (del 746–750), PC9 (del 746–750) and H3255 (L858R) cells; read-out: IC50 p-EGFR Y1068 in active mutant EGFR expressing cell lines
Description: as §1, §3

IC50 (EGFR L858R (H3255 cells)): 8 nM | IC50 [1]: 22 nM | IC50 [2]: 600 nM | IC50 [3]: 700 nM | IC50 [4]: 40 nM | IC50 (active mutant EGFR): 8 to 40 nM
Compound: CCOc1cc2ncc(C#N)c(Nc3ccc(F)c(Cl)c3)c2cc1NC(=O)/C=C/CNCc1cn(CCF)nn1 [FED6, (2E)-N-{4-[(3-chloro-4-fluorophenyl)amino]-3-cyano-7-ethoxyquinolin-6-yl}-4-({[1-(2-fluoroethyl)-1H-1,2,3-triazol-4-yl]methyl}amino)-but-2-enamide]
IC50 (EGFR): 1.8 nM
